Results taken from ChEMBL document CHEMBL3217652, “Synthesis and SAR of 2,4-diaminopyrimidines as potent c-jun N-terminal kinase inhibitors” (Medchemcomm, 2012).
pIC50: −log10 of the molar value. Activity calls are given as the source filed them. The rule behind the calls is not given here.

How the values were obtained:
[1] = target: Mitogen-activated protein kinase 9 (Homo sapiens, UniProt P45984); experiment: Inhibition of JNK2 (unknown origin) using biotinylated ATF2 by HTRF method
[2] = target: Mitogen-activated protein kinase 10 (Homo sapiens, UniProt P53779); experiment: Inhibition of JNK3 (unknown origin) using biotinylated ATF2 by HTRF method
Chain of Mitogen-activated protein kinase 10 (P53779 whole entry): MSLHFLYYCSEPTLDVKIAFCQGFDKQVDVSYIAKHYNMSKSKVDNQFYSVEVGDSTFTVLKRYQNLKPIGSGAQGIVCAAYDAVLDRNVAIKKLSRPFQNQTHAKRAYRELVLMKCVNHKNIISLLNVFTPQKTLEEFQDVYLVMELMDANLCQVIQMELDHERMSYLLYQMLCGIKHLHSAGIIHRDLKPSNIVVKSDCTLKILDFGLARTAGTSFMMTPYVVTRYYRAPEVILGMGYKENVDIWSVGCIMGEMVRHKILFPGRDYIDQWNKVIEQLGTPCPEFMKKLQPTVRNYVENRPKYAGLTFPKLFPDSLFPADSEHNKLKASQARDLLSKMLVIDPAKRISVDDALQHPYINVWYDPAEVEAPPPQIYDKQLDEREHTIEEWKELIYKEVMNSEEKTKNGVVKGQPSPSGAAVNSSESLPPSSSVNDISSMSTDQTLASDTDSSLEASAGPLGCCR

[3] = target: T1, c-Jun N-terminal kinase, JNK (Homo sapiens, UniProt P45983+P53779+P45984); conditions: U-87MG ATCC
Description: Inhibition of JNK in human U87MG cells overexpressing EGFR V3 mutant assessed as inhibition of c-jun phosphorylation at 0.1 to 3 uM after 6 hrs by Western blotting analysis

[4] = Inhibition of JNK in rat INS cells assessed as inhibition of c-jun phosphorylation; format: cell-based
[5] = Plasma concentration in C57Bl6 mouse at 10 mg/kg after 2 hrs by LC-MS/MS analysis; format: ADME, organism-based; design: dose 10 mg/kg
[6] = (§1) Oral bioavailability in Sprague-Dawley rat at 2 mg/kg by LC-MS/MS analysis; format: ADME, organism-based; conditions: Sprague-Dawley, in vivo
[7] = (§2) AUC in Sprague-Dawley rat at 2 mg/kg, po by LC-MS/MS analysis; format: ADME, organism-based, Plasma; design: dose 2 mg/kg, route oral; conditions: Sprague-Dawley, plasma
[8] = Clearance in Sprague-Dawley rat at 1 mg/kg, iv and 2 mg/kg, po by LC-MS/MS analysis; format: ADME, organism-based; conditions: in vivo
[9] = Drug uptake in C57Bl6 mouse brain at 10 mg/kg after 2 hrs by LC-MS/MS analysis; format: ADME, organism-based; design: dose 10 mg/kg; conditions: read-out: Drug uptake
[10] = Half life in Sprague-Dawley rat at 1 mg/kg, iv and 2 mg/kg, po by LC-MS/MS analysis; format: ADME, organism-based; conditions: in vivo
Brain = experiment: Drug penetration in C57Bl6 mouse brain at 10 mg/kg by LC-MS/MS analysis relative to control; format: ADME, organism-based; design: dose 10 mg/kg; conditions: in vivo
[11] = target: T1, c-Jun N-terminal kinase, JNK; experiment: Inhibition of JNK in human U87MG cells overexpressing EGFR V3 mutant assessed as inhibition of c-jun phosphorylation after 6 hrs by ELISA; format: cell-based; conditions: u-87mg atcc
Rattus norvegicus [12] = experiment: as §1; format: ADME, organism-based; conditions: in vivo
Rattus norvegicus [13] = experiment: as §2; format: ADME, organism-based, Plasma; design: dose 2 mg/kg, route oral; conditions: in vivo

Chain of Mitogen-activated protein kinase 9 (P45984 whole entry): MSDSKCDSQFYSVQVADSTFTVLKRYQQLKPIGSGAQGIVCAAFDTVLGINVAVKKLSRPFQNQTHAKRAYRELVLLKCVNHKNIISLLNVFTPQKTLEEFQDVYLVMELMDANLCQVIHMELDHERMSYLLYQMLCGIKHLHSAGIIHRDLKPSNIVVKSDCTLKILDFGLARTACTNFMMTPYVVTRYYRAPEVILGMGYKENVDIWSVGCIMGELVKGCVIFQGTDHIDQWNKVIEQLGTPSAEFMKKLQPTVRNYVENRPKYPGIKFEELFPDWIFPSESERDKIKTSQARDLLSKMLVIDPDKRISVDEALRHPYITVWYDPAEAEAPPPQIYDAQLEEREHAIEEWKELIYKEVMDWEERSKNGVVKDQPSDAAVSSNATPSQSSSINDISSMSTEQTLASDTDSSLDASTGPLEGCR

Structure (SMILES)	pIC50 [1]	pIC50 [2]	further results
NC(=O)c1ccccc1Nc1nc(Nc2ccc(N3CCOCC3)cc2F)ncc1Cl	9.22	9.52	–
Cc1cc(Nc2ncc(Cl)c(Nc3ccccc3C(N)=O)n2)ccc1N1CCOCC1	9.16	9.51	–
CNC(=O)c1ccccc1Nc1cc(Nc2ccc(N3CCOCC3)cc2)ncc1C(F)(F)F	7.05	7.21	–
CNC(=O)c1ccccc1Nc1cc(Nc2ccc(N3CCOCC3)cc2OC)ncc1Br	7.09	7.17	–
CNC(=O)c1ccccc1Nc1nc(Nc2ccc(N3CCOCC3)cc2OC)ncc1Cl	–	–	inhibition [3]: Active; pIC50 [4]: 6.31
CNC(=O)c1ccccc1Nc1cc(Nc2ccc(N3CCOCC3)cc2OC)ncc1F	6.23	6.49	–
CNC(=O)c1ccccc1Nc1cc(Nc2ccc(N3CCOCC3)cc2OC)ncc1C#N	< 5.52	6.29	–
NC(=O)c1ccccc1Nc1nc(Nc2ccc(N3CCOCC3)cc2)ncc1Cl	9.00	9.55	concentration at 2 h [5]: 840 nM; bioavailability [6]: 8%; AUC [7]: 0.1 µM·h; clearance [8]: 59 mL/min/kg; concentration at 2 h [9]: 830 nM; half-life [10]: 1 h; Drug uptake (Brain): 100%
COc1cc(Nc2ncc(Cl)c(Nc3ccccc3C(N)=O)n2)ccc1N1CCOCC1	9.17	9.55	concentration at 2 h [5]: 2600 nM; EC50 [11]: 23 nM; inhibition [3]: Active; F (Rattus norvegicus [12]): 17%; AUC (Rattus norvegicus [13]): 1.3 µM·h; concentration at 2 h [9]: 800 nM; half-life [10]: 1 h; Drug uptake (Brain): 31%
CNC(=O)c1ccccc1Nc1cc(Nc2ccc(N3CCOCC3)cc2OC)ncc1Cl	7.30	7.08	–
COc1cc(N2CCOCC2)ccc1Nc1cc(Nc2ccccc2C(N)=O)ccn1	–	6.43	–
NC(=O)c1ccccc1Nc1nc(Nc2ccc(N3CCOCC3)c(F)c2)ncc1Cl	9.29	9.60	–
NC(=O)c1ccccc1Nc1ccnc(Nc2ccc(N3CCOCC3)cc2)c1	6.48	6.80	–
CN(C)CCNC(=O)c1ccccc1Nc1ccnc(Nc2ccc(N3CCOCC3)cc2)c1	–	< 4.70	–
NC(=O)c1ccccc1Nc1nc(Nc2ccc(Cl)cc2)ncc1Cl	7.47	8.60	–
O=C1NCc2cccc(Nc3ccnc(Nc4ccc(N5CCOCC5)cc4)c3)c21	–	5.74	–
O=C(NCc1ccccc1)c1ccccc1Nc1ccnc(Nc2ccc(N3CCOCC3)cc2)c1	–	< 4.70	–
COc1cc(N2CCOCC2)ccc1Nc1cc(Nc2ccccc2C(=O)N(C)C)c(C(F)(F)F)cn1	–	6.00	–
COc1ccc(Nc2ncc(Cl)c(Nc3ccccc3C(N)=O)n2)cc1	9.00	9.38	–
CNC(=O)c1ccccc1Nc1ccnc(Nc2ccc(N3CCOCC3)cc2)c1	–	5.51	–
N#Cc1ccc(Nc2ncc(Cl)c(Nc3ccccc3C(N)=O)n2)cc1	9.15	9.11	–
COc1cc(Nc2cc(Nc3ccccc3C(N)=O)ccn2)ccc1N1CCOCC1	–	6.88	–
COc1cc(N2CCOCC2)ccc1Nc1ncc(Cl)c(Nc2ccccc2C(N)=O)n1	8.52	9.11	concentration at 2 h [5]: 5500 nM; F (Rattus norvegicus [12]): 30%; AUC (Rattus norvegicus [13]): 0.4 µM·h; pIC50 [4]: 8.52; concentration at 2 h [9]: 930 nM; half-life [10]: 1 h; Drug uptake (Brain): 17%
NC(=O)c1ccccc1Nc1nc(Nc2ccc(F)cc2)ncc1Cl	8.60	8.92	–
NC(=O)c1ccccc1Nc1nc(Nc2ccc(N3CCCC3=O)cc2)ncc1Cl	9.62	9.80	concentration at 2 h [5]: 680 nM; bioavailability [6]: 3%; AUC [7]: 0.2 µM·h; clearance [8]: 10 mL/min/kg; concentration at 2 h [9]: 15 nM; half-life [10]: 0.6 h; Drug uptake (Brain): 2%
O=C(Nc1ccccc1)c1ccccc1Nc1ccnc(Nc2ccc(N3CCOCC3)cc2)c1	–	4.92	–
CNC(=O)c1ccccc1Nc1cc(Nc2ccc(N3CCOCC3)cc2OC)ncc1C(F)(F)F [VS-4718]	6.92	6.80	pIC50 [4]: < 5.52
